US20070253961A1, “Pharmaceutical Composition Comprising the Anti-4-1Bb Antibody for Treating or Preventing Rheumatoid Arthritis” (ULSAN INDUSTRIAL EDUCATION FOUNDATION, priority 2003, published 2007)

Tested on: CIA
Test: 1-MT (IDO inhibition) reversal of 4-1BB-mediated suppression of CIA
Format: in vivo, mice
Procedure: Each mouse was injected with 200[…] of purified anti-4-1BB (3H3, rat IgG1), anti-4-1BBL (TKS-1, rat IgG1), or control rat IgG i.p. on PI days 0, 2, 4, 6, and 8. We tested the dose response of the antibodies in vivo by measuring serum IFN-γ levels for anti-4-1BB and suppression of the recall response for anti-4-1BBL. […] To treat established CIA, the mice were injected on PI days 28, 30, 32, 34, and 36. To block IFN-γ mice were injected i.p. every 4 days with 500[…] of purified R4-6A2 on PI days 0, 4, 8, and 12. Rat IgG again served as a control.
To inhibit IDO activity, slow-release polymer pellets impregnated with 1-MT (10 mg/day release rate) or placebo pellets (Innovative Research of America, Sarasota, Fla.) were implanted under the dorsal skin 1 day before the immunization. […] Because of the large size of these pellets relative to the small size of the mice, additional experiments were conducted with the implantation of two smaller pellets (10 mg/day release rate) per mouse, each containing 120 mg 1-MT, for a dose of 20 mg/day for 12 days. On day 13, two more pellets were implanted, for a total dosage period of 24 days.

For `Cn1cc(CC(N)C(=O)O)c2ccccc21` (racemic) [1-MT, 1-methyl D,L-tryptophan], the “reversal of suppressive effect of anti-4-1BB on CIA” value (5 mg/day 1-MT, with anti-4-1BB) was “incomplete”, the “suppressive effect of anti-4-1BB on CIA” value (20 mg/day dose of 1-MT, slow-release pellets, with anti-4-1BB) was “completely reversed” and the “time of appearance of CIA after 1-MT reversal” value (1-MT with anti-4-1BB, 'in these experiments') was “at the same time as in the control mice”. For the same compound, the “day disease became evident” value (1-MT-treated mice with 3H3, control mice first showed signs on PI day 30) was 48 PI day.
